# Measured values from article PMC6198068, “Discovery of a Novel Nav1.7 Inhibitor From Cyriopagopus albostriatus Venom With Potent Analgesic Efficacy” (Frontiers in Pharmacology, 2018).
# Where a SMILES comes first, the peptide text is derived from it. Bridges are numbered along the chain shown (N, C = ends).
# Experiments:
# Nav1.2 = target: T1, Nav1.2 (Homo sapiens, UniProt Q99250); test: Whole-cell patch-clamp, Nav1.2 in HEK293T cells; format: cell-based; settings: mean ± SEM
# T1 construct: expressed in transfected cells; host or cells: HEK293T
# Excerpt: (§1) The cDNA genes encoding rat Nav1.4 and human Nav1.7 were subcloned into vectors pRGB4 and pcDNA3.1-mod, respectively. Mutations of rNav1.4 (N655D, Q657E, and N655D/Q657E) and hNav1.7 (D816N, E818Q, and D816N/E818Q) were constructed using the Gene Tailor Site-Directed Mutagenesis system (Invitrogen, Carlsbad, CA, United States), according to the manufacturer’s instructions. Nav1.2–Nav1.7 and mutant plasmids together with eGFP were transiently transfected into HEK293T cells while Nav1.8 together with eGFP was transiently transfected into ND7/23 cells by Lipofectamine 2000 (Invitrogen, Carlsbad, CA, United States). Additionally, plasmids β1- and β2-eGFP encoding the human β1 and β2 subunits, respectively, were co-transfected with those encoding WT Nav1.7 and Nav1.7 mutations in HEK293T cells. […] Cells with green fluorescent protein fluorescence were selected for whole-cell patch-clamp recordings 24 h after transfection.
# (§2) Whole-cell patch-clamp recordings were performed at room temperature (20–25°C) using an EPC 10 USB Patch Clamp Amplifier (HEKA, Elektronik, Lambrecht, Germany). […] Data was analyzed by software Igo Pro 6.10A (WaveMetrics, Lake Oswego, OR, United States), SigmaPlot 10.0 (Sigma-Aldrich, St. Louis, MO, United States), OriginPro 8 (OriginLab Corp., Northampton, MA, United States), and GraphPad Prism 5 (GraphPad Software, San Diego, CA, United States). […]
# Nav1.5 = target: T2, Nav1.5 (Homo sapiens, UniProt Q14524); test: in vitro
# T2 construct: expressed in transfected cells; host or cells: HEK293T
# Excerpt: as §1, with “cells. Human Nav1.9 was transfected into ND7/23 cells according to a previous report ([Zhou et al., 2017]).” for “cells.”
# as §2
# Concentration-response curves were fitted using the following Hill logistic equation: y = fmax − (fmax − fmin)/(1 + (x/IC50)^n), where fmax and fmin, respectively, represent the channel’s maximum and minimum responses to toxins, fmin was set to 0, x represents toxin concentration and n is an empirical Hill coefficient. […] Peak inward currents from steady-state inactivation were normalized by the maximum current amplitude and fit with a Boltzmann equation I = Imin + 1/(1 + exp[Vm − V1/2/k]) where I is the current amplitude measured during the test depolarization, V1/2 is the midpoint of inaction, and k is the slope factor. […]
# Nav1.8 = test: Whole-cell patch-clamp, Nav1.8 in ND7/23 cells; format: cell-based; settings: up to 10 μM, depolarization to +20 mV
# Excerpt: as §1, §2
# Nav1.7 = target: T3, Nav1.7 (Homo sapiens, UniProt Q15858); test: Steady-state fast inactivation and fast inactivation time constants of Nav1.7; format: cell-based; settings: 0.2 μM
# T3 construct: expressed in transfected cells; host or cells: HEK293T
# Excerpt: as §1, with “States).” for “States). Additionally, plasmids β1- and β2-eGFP encoding the human β1 and β2 subunits, respectively, were co-transfected with those encoding WT Nav1.7 and Nav1.7 mutations in HEK293T cells.”
# as §2
# Fast inactivation time constants were calculated by fitting current decay traces with a single exponential function using the I–V protocol described above. […]
# Nav1.7/D816N = target: T4, Nav1.7/D816N (Homo sapiens, UniProt Q15858, D827N); test: Time course of Nav1.7/D816N inhibition and recovery upon washing; format: cell-based; settings: 1 μM, n = 4
# T4 construct: expressed in transfected cells; host or cells: HEK293T
# Excerpt: as §1, §2
# T2 sequence (Q14524 whole entry): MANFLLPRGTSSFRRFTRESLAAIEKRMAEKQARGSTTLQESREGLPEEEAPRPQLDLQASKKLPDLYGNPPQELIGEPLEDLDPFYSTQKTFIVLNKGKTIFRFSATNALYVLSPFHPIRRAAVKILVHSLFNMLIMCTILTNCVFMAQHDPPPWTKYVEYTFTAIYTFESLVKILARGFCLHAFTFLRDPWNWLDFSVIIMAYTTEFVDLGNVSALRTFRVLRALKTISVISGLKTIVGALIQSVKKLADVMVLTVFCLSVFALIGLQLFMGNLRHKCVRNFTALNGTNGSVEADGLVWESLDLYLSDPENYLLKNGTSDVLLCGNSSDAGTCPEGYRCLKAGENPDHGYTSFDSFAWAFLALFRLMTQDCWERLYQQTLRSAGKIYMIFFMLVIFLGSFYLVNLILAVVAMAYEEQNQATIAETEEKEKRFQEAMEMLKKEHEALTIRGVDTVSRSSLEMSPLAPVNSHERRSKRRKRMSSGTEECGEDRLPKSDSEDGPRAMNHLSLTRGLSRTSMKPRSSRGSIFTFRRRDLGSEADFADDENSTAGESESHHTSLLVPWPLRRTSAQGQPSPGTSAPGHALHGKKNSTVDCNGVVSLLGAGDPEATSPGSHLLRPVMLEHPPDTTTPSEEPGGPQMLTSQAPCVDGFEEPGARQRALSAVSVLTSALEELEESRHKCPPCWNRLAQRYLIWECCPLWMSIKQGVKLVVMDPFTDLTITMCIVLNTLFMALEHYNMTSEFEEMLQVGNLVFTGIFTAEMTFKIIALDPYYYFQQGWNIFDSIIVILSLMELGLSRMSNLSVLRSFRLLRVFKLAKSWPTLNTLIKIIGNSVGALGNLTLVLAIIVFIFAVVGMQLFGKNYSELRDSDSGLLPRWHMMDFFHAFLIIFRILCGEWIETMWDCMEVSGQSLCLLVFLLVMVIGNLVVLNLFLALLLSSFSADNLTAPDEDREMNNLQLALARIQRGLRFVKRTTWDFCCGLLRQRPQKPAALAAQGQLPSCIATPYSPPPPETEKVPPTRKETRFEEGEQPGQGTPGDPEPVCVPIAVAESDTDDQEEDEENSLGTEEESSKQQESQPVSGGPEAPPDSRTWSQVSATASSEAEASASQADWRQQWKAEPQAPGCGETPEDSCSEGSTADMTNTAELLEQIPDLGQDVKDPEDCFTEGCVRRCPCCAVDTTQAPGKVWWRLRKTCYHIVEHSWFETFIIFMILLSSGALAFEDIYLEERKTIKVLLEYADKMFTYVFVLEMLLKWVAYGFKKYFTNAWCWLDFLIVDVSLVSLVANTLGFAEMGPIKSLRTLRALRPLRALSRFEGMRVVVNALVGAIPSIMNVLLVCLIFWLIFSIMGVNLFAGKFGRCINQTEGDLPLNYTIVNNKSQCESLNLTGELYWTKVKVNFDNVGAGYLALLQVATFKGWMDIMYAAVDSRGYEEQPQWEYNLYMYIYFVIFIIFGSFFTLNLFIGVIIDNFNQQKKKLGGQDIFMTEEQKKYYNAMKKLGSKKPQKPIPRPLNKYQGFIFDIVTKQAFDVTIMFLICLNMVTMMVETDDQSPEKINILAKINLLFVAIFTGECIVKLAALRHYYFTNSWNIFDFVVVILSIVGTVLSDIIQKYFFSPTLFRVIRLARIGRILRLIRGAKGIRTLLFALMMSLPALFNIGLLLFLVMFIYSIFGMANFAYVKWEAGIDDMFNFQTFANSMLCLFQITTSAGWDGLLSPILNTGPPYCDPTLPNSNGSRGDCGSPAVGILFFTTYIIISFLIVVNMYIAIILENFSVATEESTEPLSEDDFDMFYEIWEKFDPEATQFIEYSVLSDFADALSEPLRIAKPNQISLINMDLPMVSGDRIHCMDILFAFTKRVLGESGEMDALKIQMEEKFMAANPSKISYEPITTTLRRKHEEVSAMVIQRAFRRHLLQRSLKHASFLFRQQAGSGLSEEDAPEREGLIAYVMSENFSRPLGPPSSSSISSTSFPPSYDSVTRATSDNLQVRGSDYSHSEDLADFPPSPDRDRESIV
# T3 sequence (O60939 30-215): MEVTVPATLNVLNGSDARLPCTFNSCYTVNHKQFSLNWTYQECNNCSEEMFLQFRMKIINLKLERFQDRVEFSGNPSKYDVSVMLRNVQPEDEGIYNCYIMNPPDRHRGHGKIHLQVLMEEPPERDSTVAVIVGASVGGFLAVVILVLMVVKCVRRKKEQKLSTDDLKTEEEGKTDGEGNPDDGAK
# T3 sequence (Q15858 other isoform, or with tags, fused parts or gaps): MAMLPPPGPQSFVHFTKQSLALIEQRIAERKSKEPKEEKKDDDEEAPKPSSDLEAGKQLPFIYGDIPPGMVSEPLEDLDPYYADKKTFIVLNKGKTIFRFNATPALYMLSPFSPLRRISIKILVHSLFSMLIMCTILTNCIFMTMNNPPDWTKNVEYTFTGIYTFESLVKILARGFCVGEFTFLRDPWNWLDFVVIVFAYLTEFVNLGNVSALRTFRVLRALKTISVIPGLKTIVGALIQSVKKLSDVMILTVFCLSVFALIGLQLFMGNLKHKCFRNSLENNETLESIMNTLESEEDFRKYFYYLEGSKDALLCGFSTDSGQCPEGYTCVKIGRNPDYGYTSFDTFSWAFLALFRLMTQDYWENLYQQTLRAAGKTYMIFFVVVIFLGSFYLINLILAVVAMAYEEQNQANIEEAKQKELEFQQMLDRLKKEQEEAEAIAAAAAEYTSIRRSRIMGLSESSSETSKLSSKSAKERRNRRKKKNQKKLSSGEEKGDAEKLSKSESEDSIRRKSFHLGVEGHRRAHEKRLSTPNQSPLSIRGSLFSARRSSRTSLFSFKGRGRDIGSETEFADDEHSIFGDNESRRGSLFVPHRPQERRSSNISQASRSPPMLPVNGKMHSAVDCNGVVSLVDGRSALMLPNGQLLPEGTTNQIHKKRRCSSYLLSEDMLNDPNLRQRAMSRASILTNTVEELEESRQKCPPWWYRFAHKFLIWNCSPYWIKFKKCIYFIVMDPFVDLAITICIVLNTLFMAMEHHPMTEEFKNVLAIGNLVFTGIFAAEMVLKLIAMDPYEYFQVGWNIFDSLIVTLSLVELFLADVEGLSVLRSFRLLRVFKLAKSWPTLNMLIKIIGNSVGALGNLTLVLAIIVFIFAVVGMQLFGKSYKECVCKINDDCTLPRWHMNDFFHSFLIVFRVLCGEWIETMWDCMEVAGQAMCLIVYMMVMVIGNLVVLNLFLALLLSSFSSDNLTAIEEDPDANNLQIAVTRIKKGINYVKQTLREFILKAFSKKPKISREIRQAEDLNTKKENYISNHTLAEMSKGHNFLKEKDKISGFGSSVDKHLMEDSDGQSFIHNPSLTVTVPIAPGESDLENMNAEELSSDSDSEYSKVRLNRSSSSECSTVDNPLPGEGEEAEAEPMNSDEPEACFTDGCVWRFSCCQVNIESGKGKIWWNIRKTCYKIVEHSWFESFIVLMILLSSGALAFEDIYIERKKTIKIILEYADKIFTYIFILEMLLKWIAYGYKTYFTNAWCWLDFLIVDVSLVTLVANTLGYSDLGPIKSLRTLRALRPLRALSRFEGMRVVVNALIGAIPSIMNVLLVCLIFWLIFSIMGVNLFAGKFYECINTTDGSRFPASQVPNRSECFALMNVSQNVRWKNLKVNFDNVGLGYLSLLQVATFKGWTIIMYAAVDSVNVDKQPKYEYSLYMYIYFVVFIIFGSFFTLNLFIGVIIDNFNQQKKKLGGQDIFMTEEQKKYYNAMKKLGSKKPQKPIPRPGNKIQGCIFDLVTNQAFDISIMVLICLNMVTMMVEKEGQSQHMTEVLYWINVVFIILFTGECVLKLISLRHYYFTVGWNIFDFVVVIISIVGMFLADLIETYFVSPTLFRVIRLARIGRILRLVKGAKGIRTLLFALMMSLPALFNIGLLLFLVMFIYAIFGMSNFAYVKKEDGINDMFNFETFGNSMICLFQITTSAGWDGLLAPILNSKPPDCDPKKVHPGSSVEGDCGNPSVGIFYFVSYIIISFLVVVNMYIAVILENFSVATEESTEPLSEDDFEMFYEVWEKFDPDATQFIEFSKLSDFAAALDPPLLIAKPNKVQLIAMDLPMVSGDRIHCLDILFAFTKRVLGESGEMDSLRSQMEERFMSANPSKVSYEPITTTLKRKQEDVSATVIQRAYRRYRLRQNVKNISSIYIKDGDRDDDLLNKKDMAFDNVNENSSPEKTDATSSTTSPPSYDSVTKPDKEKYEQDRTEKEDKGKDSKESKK
# T3 sequence (Q07699 19-218, further chain): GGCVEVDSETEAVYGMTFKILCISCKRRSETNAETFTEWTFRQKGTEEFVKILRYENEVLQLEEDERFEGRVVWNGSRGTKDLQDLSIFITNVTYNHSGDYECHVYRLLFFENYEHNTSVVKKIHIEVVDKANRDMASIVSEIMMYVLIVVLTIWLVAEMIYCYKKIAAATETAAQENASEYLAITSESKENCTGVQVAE
# T4 sequence (O60939 30-215): as the sequence (O60939 30-215) above
# T4 sequence (Q07699 19-218, further chain): as the sequence (Q07699 19-218, further chain) above
# T4 sequence (Q15858 other isoform, or with tags, fused parts or gaps D816N): as the sequence (Q15858 other isoform, or with tags, fused parts or gaps) above, with D816N counted along it
smiles,measurement,setting,value
"CC(C)C[C@H](NC(=O)[C@H](CC(=O)O)NC(=O)[C@H](Cc1ccc(O)cc1)NC(=O)[C@H](CCCCN)NC(=O)[C@@H]1CSSC[C@@H]2NC(=O)[C@H](CCCCN)NC(=O)[C@H](CC(=O)O)NC(=O)[C@H](CC(N)=O)NC(=O)[C@H](CO)NC(=O)[C@@H]3CCCN3C(=O)[C@H](CC(N)=O)NC(=O)[C@@H]3CSSC[C@H](NC(=O)[C@H](C(C)C)NC(=O)[C@H](CC(C)C)NC(=O)[C@H](CO)NC(=O)[C@H](CO)NC(=O)[C@H](CO)NC(=O)[C@H](CCCCN)NC(=O)[C@H](CSSC[C@H](NC(=O)[C@H](C)N)C(=O)N[C@@H](CC(C)C)C(=O)NCC(=O)N[C@@H](Cc4ccccc4)C(=O)NCC(=O)N[C@@H](CCC(=O)O)C(=O)N[C@@H](CCCCN)C(=O)N3)NC2=O)C(=O)N[C@@H](CO)C(=O)N[C@@H](CCC(N)=O)C(=O)N[C@@H](CCCCN)C(=O)N[C@@H](Cc2c[nH]cn2)C(=O)N[C@@H](CCCCN)C(=O)N[C@@H](Cc2c[nH]c3ccccc23)C(=O)N1)C(=O)O [Ca2a] (H-ACLGFGEKCNPSNDKCCKSSSLVCSQKHKWCKYDL-OH; disulfide 2-17, 9-24, 16-31 (inferred); N-terminus and C-terminus assumed)",decrease of Nav1.2 current amplitude,"Nav1.2; 1 μM, 50 ms to −10 mV from −100 mV",82.6 ± 2.7%
same,IC50,"Nav1.2; whole-cell patch-clamp, n = 4–7 cells per data point",216 ± 9.1 nM
same,selectivity ratio,"Nav1.5; cardiac isoform Nav1.5 vs Nav1.7, read-out: selectivity for Nav1.7 against Nav1.5",> 100
same,IC50,"Nav1.5; cardiac muscle isoform, whole-cell patch-clamp, HEK293T",> 10000 nM
same,inhibitory effect on Nav1.5 currents,"Nav1.5; up to 10 μM, HEK293T",no inhibitory effects
same,inhibitory effect on Nav1.8 currents,Nav1.8,no inhibitory effects
same,fast inactivation time constants of Nav1.7,"Nav1.7; between −15 and 10 mV, P > 0.05, two-way ANOVA, n = 6–11 cells",did not alter the inactivation time constants
same,half-inactivation voltage of Nav1.7 (steady-state fast inactivation),"Nav1.7; control −70.2 ± 0.8 mV, 500-ms prepulse, mean ± SEM, n = 10",−70.7 ± 1.1 mV
same,recovery of Nav1.7/D816N current on washout,Nav1.7/D816N; extended washout,did not recover
same,"τon, Nav1.7/D816N",Nav1.7/D816N,18.4 ± 1.3 s
